Molecules are shown by their SMILES.

Assay [1] addresses T1, KRas G12C (Homo sapiens, UniProt P01116, G12C).
T1 construct: Biotinylated KRas (corresponding to amino acids 1-169, produced at Accelegan Inc.); biotin (biotinylated); purchased Accelegan Inc
The experiment in a line: KRas binding assay, TR-FRET displacement of Cy5 labelled tracer. The settings on record: 60-minute incubation at room temperature, 1% DMSO, pH 7.5. An outline of the steps:
(§1)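 Biotinylated KRas (aa 1-169) incubated with Cy5-labelled tracer, terbium streptavidin and compound (1% DMSO final) in 50 mM HEPES pH 7.5, 5 mM MgCl2, 0.005% Tween-20, 1 mM DTT. Tracer displacement read by TR-FRET after 60 min at room temperature; POC values fitted to 4-parameter IC50 equation.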
(In general: In TR-FRET formats the signal depends on donor and acceptor labels being close together.)

Assay [2] deals with T2, KRas G12S (Homo sapiens, UniProt P01116, G12S).
T2 construct: Biotinylated KRas (corresponding to amino acids 1-169, produced at Accelegan Inc.); biotin (biotinylated); purchased Accelegan Inc
T2 sequence (P01116 1-169 isoform P01116-2 G12S): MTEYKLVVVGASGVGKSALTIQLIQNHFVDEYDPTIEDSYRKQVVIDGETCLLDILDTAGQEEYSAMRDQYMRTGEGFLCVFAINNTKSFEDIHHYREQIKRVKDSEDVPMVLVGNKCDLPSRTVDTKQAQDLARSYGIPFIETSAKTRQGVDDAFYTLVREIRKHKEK
The description is as above. The settings on record: 60-minute incubation at room temperature, 1% DMSO, pH 7.5. In outline:
as §1

In assay [3] the target is T3, KRas WT (Homo sapiens, UniProt P01116).
T3 construct: Biotinylated KRas (corresponding to amino acids 1-169, produced at Accelegan Inc.); biotin (biotinylated); purchased Accelegan Inc
T3 sequence (P01116 1-169 isoform P01116-2): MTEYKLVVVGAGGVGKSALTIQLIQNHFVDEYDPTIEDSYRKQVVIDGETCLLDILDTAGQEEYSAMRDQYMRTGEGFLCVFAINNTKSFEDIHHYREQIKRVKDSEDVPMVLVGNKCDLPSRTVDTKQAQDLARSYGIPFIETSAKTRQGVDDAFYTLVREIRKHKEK
The assay is described as above. The settings on record: 60-minute incubation at room temperature, 1% DMSO, pH 7.5. In outline:
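KRas aa 1-169, biotinylated; Tb-streptavidin donor; 1% DMSO final. Buffer: HEPES 50 mM (pH 7.5), MgCl2 5 mM, DTT 1 mM, Tween-20 0.005%. 60 min, RT. IC50 from 4-parameter fit of POC.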

In assay [4] the target is T4, KRas-mediated phosphorylation of ERK in MKN1 cells (Homo sapiens, UniProt P01116).
T4 construct: pERK HTRF read-out
T4 sequence (P01116 1-188 isoform P01116-2): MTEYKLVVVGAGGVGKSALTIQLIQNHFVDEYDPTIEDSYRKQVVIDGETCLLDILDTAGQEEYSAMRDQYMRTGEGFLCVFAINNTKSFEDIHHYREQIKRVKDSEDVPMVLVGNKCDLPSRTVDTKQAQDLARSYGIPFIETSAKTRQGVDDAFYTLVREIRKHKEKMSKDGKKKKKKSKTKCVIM
The experiment in a line: Inhibition of KRas-mediated phosphorylation of ERK (HTRF), MKN1 cells. It is filed as cell-based. The settings on record: MKN1 cells (KRas WT); HTRF pERK; 3 h incubation. The method, then:
Inhibition of KRas Phosphorylation of ERK (HTRF) by Exemplary Compounds of Formula (Ia) or (Ib)
Cisbio HTRF Advanced pERK Assay Catalog #64AERPEH • Cells: MKN1, PSN1 • Procedure: • 1. Day 1: Seed 6,000 cells/well −25 μl/well in 384-well white solid bottom plate; RPM1_10% FBS. Incubate overnight at 37 °C/5% CO2. • 2.

The target of assay [5] is T5, KRas-mediated phosphorylation of ERK in A549 cells (Homo sapiens, UniProt P01116, G12S).
T5 construct: pERK HTRF read-out
T5 sequence (P01116 1-188 isoform P01116-2 G12S): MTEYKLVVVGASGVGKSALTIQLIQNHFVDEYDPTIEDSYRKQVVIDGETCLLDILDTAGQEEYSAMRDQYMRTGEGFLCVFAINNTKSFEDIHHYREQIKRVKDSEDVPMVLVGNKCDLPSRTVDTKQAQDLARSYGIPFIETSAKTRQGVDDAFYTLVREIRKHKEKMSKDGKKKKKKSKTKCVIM
The experiment in a line: Inhibition of KRas-mediated phosphorylation of ERK (HTRF), A549 cells. The assay is classed as cell-based. As to conditions: HTRF pERK, 3 h incubation.

Assay [6] concerns the target T6, KRas-mediated phosphorylation of ERK in H358 cells (Homo sapiens, UniProt P01116, G12C).
T6 construct: pERK HTRF read-out
The experiment in a line: Inhibition of KRas-mediated phosphorylation of ERK (HTRF), H358 cells. As to conditions: HTRF pERK, 3 h incubation. The assay is classed as cell-based.

T1 sequence (P01116 1-169 isoform P01116-2 G12C): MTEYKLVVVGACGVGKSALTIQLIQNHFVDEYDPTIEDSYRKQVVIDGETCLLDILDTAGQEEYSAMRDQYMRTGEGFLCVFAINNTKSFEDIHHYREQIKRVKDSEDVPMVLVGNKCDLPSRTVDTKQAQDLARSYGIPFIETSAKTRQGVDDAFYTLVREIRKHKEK
T6 sequence (P01116 1-188 isoform P01116-2 G12C): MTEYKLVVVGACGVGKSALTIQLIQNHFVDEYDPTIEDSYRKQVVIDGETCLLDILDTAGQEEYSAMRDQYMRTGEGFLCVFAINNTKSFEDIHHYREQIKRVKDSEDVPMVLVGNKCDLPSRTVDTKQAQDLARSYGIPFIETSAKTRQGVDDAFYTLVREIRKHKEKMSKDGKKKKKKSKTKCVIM

The IC50 is the midpoint of a concentration-inhibition curve. For the compound `CC(=O)N(C)C(=O)[C@H]1C[C@@H]2CN(c3nc(OC[C@@]45CCCN4C[C@H](F)C5)nc4c(F)c(-c5ccc(F)c6sc(N)c(C#N)c56)c(Cl)cc34)C[C@@H]2C1` (atropisomer, axis not shown; (aR)) [Example 236, (3aR,5S,6aS)-N-acetyl-2-((S)-7-(2-amino-3-cyano-7-fluorobenzo[b]thiophen-4-yl)-6-chloro-8-fluoro-2-(((2R,7aS)-2-fluorotetrahydro-1H-pyrrolizin-7a(5H)-yl)methoxy)quinazolin-4-yl)-N-methyloctahydrocyclopenta[c]pyrrole-5-carboxamide], the IC50 in assay [1] came to 7 nM; in assay [2] it was 15 nM; in assay [3], 10 nM; in assay [4], 41 nM; in assay [5] it was 104 nM; in assay [6], 108 nM.

In the case of `Cc1ccn(C(=O)[C@H]2CCCN(c3nc(OC[C@@]45CCCN4C[C@H](F)C5)nc4c(F)c(-c5ccc(F)c6sc(N)c(C#N)c56)c(Cl)cc34)CC2)n1` (atropisomer, axis not shown; (aS)) [Example 170, 2-amino-4-((S)-6-chloro-8-fluoro-2-(((2R,7aS)-2-fluorotetrahydro-1H-pyrrolizin-7a(5H)-yl)methoxy)-4-((S)-4-(3-methyl-1H-pyrazole-1-carbonyl)azepan-1-yl)quinazolin-7-yl)-7-fluorobenzo[b]thiophene-3-carbonitrile], the 50% inhibitory concentration (IC50) in assay [1] amounted to 2 nM; in assay [2], 2 nM; in assay [3], 9 nM; in assay [4] it was 53 nM; in assay [5], 2 nM; in assay [6] it was 3 nM.

In the case of `Cc1ccn(C(=O)[C@@H]2CCCN(c3nc(OC[C@@]45CCCN4C[C@H](F)C5)nc4c(F)c(-c5ccc(F)c6sc(N)c(C#N)c56)c(Cl)cc34)CC2)n1` (atropisomer, axis not shown; (aS)) [Example 172, 2-amino-4-((S)-6-chloro-8-fluoro-2-(((2R,7aS)-2-fluorotetrahydro-1H-pyrrolizin-7a(5H)-yl)methoxy)-4-((R)-4-(3-methyl-1H-pyrazole-1-carbonyl)azepan-1-yl)quinazolin-7-yl)-7-fluorobenzo[b]thiophene-3-carbonitrile], the concentration for half-maximal inhibition (IC50) in assay [4] stood at 199 nM; in assay [5] it was 35 nM; in assay [6], 50 nM.

Consider `CC(=O)N(C)C(=O)[C@H]1CCCN(c2nc(OC[C@@]34CCCN3C[C@H](F)C4)nc3c(F)c(-c4ccc(F)c5sc(N)c(C#N)c45)c(Cl)cc23)CC1` (atropisomer, axis not shown; (aS)) [Example 256, (S)—N-acetyl-1-((S)-7-(2-amino-3-cyano-7-fluorobenzo[b]thiophen-4-yl)-6-chloro-8-fluoro-2-(((2R,7aS)-2-fluorotetrahydro-1H-pyrrolizin-7a(5H)-yl)methoxy)quinazolin-4-yl)-N-methylazepane-4-carboxamide], for which the half-maximal inhibitory concentration (IC50) in assay [1] is 5 nM; in assay [2], 2 nM; in assay [3], 4 nM; in assay [4] it was 19 nM; in assay [5], 3 nM; in assay [6], 8 nM.

Turning to `CC(=O)N(C)C(=O)CCCN(C)c1nc(OC[C@@]23CCCN2C[C@H](F)C3)nc2c(F)c(-c3ccc(F)c4sc(N)c(C#N)c34)c(Cl)cc12` (atropisomer, axis not shown; (aS)) [Example 260, N-acetyl-4-(((S)-7-(2-amino-3-cyano-7-fluorobenzo[b]thiophen-4-yl)-6-chloro-8-fluoro-2-(((2R,7aS)-2-fluorotetrahydro-1H-pyrrolizin-7a(5H)-yl)methoxy)quinazolin-4-yl)(methyl)amino)-N-methylbutanamide], the IC50 in assay [1] was < 2 nM; in assay [2], < 2 nM; in assay [3], 4 nM; in assay [4], 36 nM; in assay [5], 6 nM; in assay [6], 18 nM.

Take `CCc1c(F)ccc2cc(O)cc(-c3ncc4c(N5CCN(C(=O)n6ccc(C)n6)C6(CC6)C5)nc(OC[C@@]56CCCN5C[C@H](F)C6)nc4c3F)c12` (single isomer, unassigned) [Example 78]: the 50% inhibitory concentration (IC50) in assay [1] stood at 128 nM; in assay [2], 146 nM; in assay [3], 25 nM; in assay [4], 90 nM; in assay [5] it was 3820 nM; in assay [6], 1250 nM.

On to `CCc1c(F)ccc2cc(O)cc(-c3ncc4c(N5CCN(C(=O)n6nccn6)CC5)nc(OC[C@@]56CCCN5C[C@H](F)C6)nc4c3F)c12` (single isomer, unassigned) [Example 152], for which the half-maximal inhibitory concentration (IC50) in assay [1] amounted to 73 nM; in assay [2], 84 nM; in assay [3], 39 nM; in assay [4] it was 251 nM; in assay [5], 2180 nM; in assay [6], 83 nM.

With `CN(CCN(C)c1nc(OC[C@@]23CCCN2C[C@H](F)C3)nc2c(F)c(-c3ccc(F)c4sc(N)c(C#N)c34)c(Cl)cc12)C(=O)n1nccn1` (single isomer, unassigned) [Example 202], the IC50 was < 2 nM in assay [1]; 2 nM in assay [2]; 4 nM in assay [3]; 142 nM in assay [4]; 1480 nM in assay [5]; 23 nM in assay [6].

Take `CN(CCN(C)c1nc(OC[C@@]23CCCN2C[C@H](F)C3)nc2c(F)c(-c3ccc(F)c4sc(N)c(C#N)c34)c(Cl)cc12)C(=O)n1ccnn1` (single isomer, unassigned) [Example 203]: the 50% inhibitory concentration (IC50) in assay [1] is < 2 nM; in assay [2], 3 nM; in assay [3] it was 4 nM; in assay [4], 101 nM; in assay [5], 195 nM; in assay [6], 1 nM.

`CCc1c(F)ccc2cc(O)cc(-c3ncc4c(N5CCC(C(=O)N(C)c6ccccn6)CC5)nc(OC[C@@]56CCCN5C[C@H](F)C6)nc4c3F)c12` [Example 62, 1-(7-(8-ethyl-7-fluoro-3-hydroxynaphthalen-1-yl)-8-fluoro-2-(((2R,7aS)-2-fluorotetrahydro-1H-pyrrolizin-7a(5H)-yl)methoxy)pyrido[4,3-d]pyrimidin-4-yl)-N-methyl-N-(pyridin-2-yl)piperidine-4-carboxamide]: the half-maximal inhibitory concentration (IC50) in assay [1] amounted to 619 nM; in assay [2], 6330 nM; in assay [3], 64 nM; in assay [5], 7060 nM; in assay [6], 8390 nM.

`CCc1c(F)ccc2cc(O)cc(N3CCc4c(nc(OC[C@@]56CCCN5C[C@H](F)C6)nc4N4CCCC(C(=O)n5cccn5)CC4)C3)c12` (stereo partly drawn) [Example 143, (1-(7-(8-ethyl-7-fluoro-3-hydroxynaphthalen-1-yl)-2-(((2R,7aS)-2-fluorotetrahydro-1H-pyrrolizin-7a(5H)-yl)methoxy)-5,6,7,8-tetrahydropyrido[3,4-d]pyrimidin-4-yl)azepan-4-yl)(1H-pyrazol-1-yl)methanone]: the concentration for half-maximal inhibition (IC50) turned out to be 56 nM in assay [1]; 8 nM in assay [2]; 166 nM in assay [3]; 38 nM in assay [5]; 931 nM in assay [6].

For `CCc1c(F)ccc2cc(O)cc(N3CCc4c(nc(OC[C@@]56CCCN5C[C@H](F)C6)nc4N4CCCC(C(=O)n5ccc(C)n5)C4)C3)c12` (stereo partly drawn) [Example 144, (1-(7-(8-ethyl-7-fluoro-3-hydroxynaphthalen-1-yl)-2-(((2R,7aS)-2-fluorotetrahydro-1H-pyrrolizin-7a(5H)-yl)methoxy)-5,6,7,8-tetrahydropyrido[3,4-d]pyrimidin-4-yl)piperidin-3-yl)(3-methyl-1H-pyrazol-1-yl)methanone], the IC50 in assay [1] came out at 50 nM; in assay [2], 32 nM; in assay [3], 68 nM; in assay [5], 5900 nM; in assay [6], 178 nM.

As to `CCc1c(F)ccc2cc(O)cc(-c3ncc4c(N5CCC(C(=O)Nc6ccccn6)CC5)nc(OC[C@@]56CCCN5C[C@H](F)C6)nc4c3F)c12` [Example 153, 1-(7-(8-ethyl-7-fluoro-3-hydroxynaphthalen-1-yl)-8-fluoro-2-(((2R,7aS)-2-fluorotetrahydro-1H-pyrrolizin-7a(5H)-yl)methoxy)pyrido[4,3-d]pyrimidin-4-yl)-N-(pyridin-2-yl)piperidine-4-carboxamide], the 50% inhibitory concentration (IC50) in assay [1] is 439 nM; in assay [2], 642 nM; in assay [3], 138 nM; in assay [5] it was 4130 nM; in assay [6], 1760 nM.

`CCc1c(F)ccc2cc(O)cc(-c3ncc4c(N5CC[C@H]6[C@@H](C5)[C@H]6C(=O)n5ccc(C)n5)nc(OC[C@@]56CCCN5C[C@H](F)C6)nc4c3F)c12` [Example 156, ((1R,6S,7S)-3-(7-(8-ethyl-7-fluoro-3-hydroxynaphthalen-1-yl)-8-fluoro-2-(((2R,7aS)-2-fluorotetrahydro-1H-pyrrolizin-7a(5H)-yl)methoxy)pyrido[4,3-d]pyrimidin-4-yl)-3-azabicyclo[4.1.0]heptan-7-yl)(3-methyl-1H-pyrazol-1-yl)methanone]: the IC50 in assay [1] is 89 nM; in assay [2] it was 15 nM; in assay [4] it was 2090 nM; in assay [5], 38 nM; in assay [6] it was 2350 nM.

These data come from patent US20260356856A1, “KRAS G12S AND G12C INHIBITORS” (MIRATI THERAPEUTICS, INC., priority 2023, published 2026).
